Laboratory results: patent US9801901B2, “Alginate oligomers for use in overcoming multidrug resistance in bacteria” (priority 2009, dated 2017)
In brackets after ≈: the same amount, converted by molar mass. Read-outs that look alike come from different tables or passages of the source. Marks after values point to notes of the source that are not given here.

Legend:
[1] = system: Burkholderia cepacia (1322, V23); experiment: MIC-assay, Mueller-Hinton broth with G-block alginate, 384-well, OD600
[2] = system: V9 (Egypt) Acinetobacter baumannii; experiment: MIC assay, CAMHB with alginate oligomer, no visible growth; format: cell-based; conditions: Table 5, V9 MDR Acin. baum
[3] = system: Acinetobacter lwoffii (Egypt, V10); experiment: MIC-assay, Mueller-Hinton broth with G-block alginate, 384-well, OD600
[4] = system: V10 (Egypt) Acinetobacter lwoffii; experiment: MIC assay, CAMHB with alginate oligomer, no visible growth; format: cell-based; conditions: Table 5, V10 MDR Acin. lwoff
[5] = system: strains of Klebsiella pneumoniae displaying MDR phenotypes; experiment: MIC-assay, Mueller-Hinton broth with G-block alginate, 384-well, OD600 (Table 10); format: cell-based
From the text: Minimum inhibitory concentration (MICs) of different antibiotics for strains of Klebsiella pneumoniae displaying MDR phenotypes in the presence of varying concentrations of OligoCF-5/20 (0-10%). (MIC values are expressed in μg ml^−1).

[6] = system: PA01 Pseudomonas aeruginosa ATCC 15692; experiment: MIC assay, two-fold antibiotic dilutions in CAMHB with alginate oligomer, no visible growth; format: cell-based; conditions: Pseudomonas aeruginosa, ATCC15692, Table 1, PA01, read-out: MIC
MDR Providencia stuartii = experiment: MIC-assay, Mueller-Hinton broth with G-block alginate, 384-well, OD600 (Table 11); format: cell-based; conditions: Providencia stuartii (IR57 India, V7) MDR
From the text: (§1) Minimum inhibitory concentration (MICs) of different antibiotics for strains of E. coli and Providencia stuartii displaying MDR phenotypes in the presence of varying concentrations of OligoCF-5/20 (0-10%). (MIC values are expressed in μg ml^−1).

[7] = system: strains of E. coli displaying MDR phenotypes; experiment: as above; format: cell-based; conditions: Escherichia coli, Escherichia coli (5702, Wales, V11) MDR
From the text: as §1

[8] = system: Acinetobacter baumannii (Egypt, V9); experiment: MIC-assay, Mueller-Hinton broth with G-block alginate, 384-well, OD600
[9] = system: Staphylococcus aureus (MRSA) U50; experiment: MIC-assay, Mueller-Hinton broth with G-block alginate, 384-well, OD600 (Table 12); format: cell-based; conditions: MRSA 1040s, U50 MDR
From the text: Minimum inhibitory concentration (MICs) of different antibiotics for strains of Streptococcus oralis and Staphylococcus aureus (MRSA) displaying MDR phenotypes in the presence of varying concentrations of OligoCF-5/20 (0-10%). (MIC values are expressed in μg ml^−1).

[10] = system: Pseudomonas aeruginosa (R22, PSA, V1); experiment: MIC-assay, Mueller-Hinton broth with G-block alginate, 384-well, OD600
[11] = system: Acinetobacter baumannii MDR ACB from Libya (V4); experiment: MIC assay, CAMHB with alginate oligomer, no visible growth; format: cell-based; conditions: for MIC: Acinetobacter baumannii, read-out: MIC
From the text: The study described in Example 1 was repeated with the following strains of bacteria and antibiotics as detailed in Tables 4, 5 and 6.
The study described in Example 1 was repeated with the following strains of Acinetobacter baumannii, antibiotics and M-block alginate oligomer in place of OligoG CF-5/20 as detailed in Table 7. The M-block oligomer is 100% M with a DPn of 15 to 18,

[12] = system: Pseudomonas aeruginosa ATCC 39324, mucoid type strain (R79); experiment: as above; format: cell-based; conditions: Pseudomonas aeruginosa, ATCC39324, Table 1, R79, read-out: MIC
[13] = system: V12 5725 (Wales) Klebsiella pneumoniae; experiment: as above; format: cell-based; conditions: Table 5, V12 MDR Kleb pneu
[14] = Table 8, G-block (OligoCF-5/20) 6%
[15] = Table 8, G-block (OligoCF-5/20) 10%
[16] = Table 9, G-block (OligoCF-5/20) 0%
[17] = Table 9, G-block (OligoCF-5/20) 2%
[18] = Table 9, G-block (OligoCF-5/20) 6%
[19] = Table 9, G-block (OligoCF-5/20) 10%
[20] = G-block (OligoCF-5/20) 0%, read-out: MIC
[21] = G-block (OligoCF-5/20) 2%, read-out: MIC

## C[C@H]1[C@H](NC(=O)/C(=N\OC(C)(C)C(=O)O)c2csc(N)n2)C(=O)N1S(=O)(=O)O [Aztreonam]
[1]; Table 8, G-block (OligoCF-5/20) 0%
  MIC: > 16 mg/L
[1]; Table 8, G-block (OligoCF-5/20) 2%
  MIC: > 16 mg/L
[1]; [14]
  MIC: > 16 mg/L
[1]; [15]
  MIC: > 16 mg/L
[2]; Acinetobacter baumannii, OligoCF-5/20 0G, read-out: MIC
  MIC: > 512 mg/L
[2]; OligoCF-5/20 +2% G
  MIC: 512^† μg/ml
[2]; OligoCF-5/20 +6% G
  MIC: 256^† μg/ml
[2]; OligoCF-5/20 +10% G
  MIC: 128^† μg/ml
[3]; [16]
  MIC: 8 mg/L (≈ 18.4 µM)
[3]; [17]
  MIC: 4 mg/L (≈ 9.19 µM)
[3]; [18]
  MIC: 2 mg/L (≈ 4.59 µM)
[3]; [19]
  MIC: 1 mg/L (≈ 2.3 µM)
[4]; Acinetobacter lwoffii, OligoCF-5/20 0G, read-out: MIC
  MIC: 32 mg/L (≈ 73.5 µM)
[4]; OligoCF-5/20 +2% G
  MIC: 16^† μg/ml
[4]; OligoCF-5/20 +6% G
  MIC: 4^† μg/ml
[4]; OligoCF-5/20 +10% G
  MIC: 1^† μg/ml
[5]; Klebsiella pneumoniae (5712, Wales, V12) MDR, G-block (OligoCF-5/20) 0%, read-out: MIC
  MIC: 4 mg/L (≈ 9.19 µM)
[5]; Klebsiella pneumoniae (5712, Wales, V12) MDR, G-block (OligoCF-5/20) 2%, read-out: MIC
  MIC: 4 mg/L (≈ 9.19 µM)
[5]; Klebsiella pneumoniae (5712, Wales, V12) MDR, G-block (OligoCF-5/20) 6%, read-out: MIC
  MIC: 4 mg/L (≈ 9.19 µM)
[5]; Klebsiella pneumoniae (5712, Wales, V12) MDR, G-block (OligoCF-5/20) 10%, read-out: MIC
  MIC: 4 mg/L (≈ 9.19 µM)
[5]; Klebsiella pneumoniae (IR25, India, V6) MDR, G-block (OligoCF-5/20) 2%, read-out: MIC
  MIC: 256 mg/L (≈ 588 µM)
[5]; Klebsiella pneumoniae (IR25, India, V6) MDR, G-block (OligoCF-5/20) 6%
  MIC: 128 mg/L (≈ 294 µM)
[5]; Klebsiella pneumoniae (IR25, India, V6) MDR, G-block (OligoCF-5/20) 10%, read-out: MIC
  MIC: 64 mg/L (≈ 147 µM)
[5]; Klebsiella pneumoniae (K3, India, V8) MDR, G-block (OligoCF-5/20) 2%, read-out: MIC
  MIC: 256 mg/L (≈ 588 µM)
[5]; Klebsiella pneumoniae (K3, India, V8) MDR, G-block (OligoCF-5/20) 6%
  MIC: 128 mg/L (≈ 294 µM)
[5]; Klebsiella pneumoniae (K3, India, V8) MDR, G-block (OligoCF-5/20) 10%
  MIC: 128 mg/L (≈ 294 µM)
[6]; OligoCF-5/20 0G
  MIC: 8 mg/L (≈ 18.4 µM)
[6]; OligoCF-5/20 +2% G
  MIC: 16 mg/L (≈ 36.7 µM)
[6]; OligoCF-5/20 +6% G
  MIC: 4 mg/L (≈ 9.19 µM)
[6]; OligoCF-5/20 +10% G
  MIC: 2 mg/L (≈ 4.59 µM)
MDR Providencia stuartii; G-block (OligoCF-5/20) 0%
  MIC: > 1020 mg/L
MDR Providencia stuartii; G-block (OligoCF-5/20) 2%
  MIC: > 1020 mg/L
MDR Providencia stuartii; G-block (OligoCF-5/20) 6%
  MIC: > 1020 mg/L
MDR Providencia stuartii; G-block (OligoCF-5/20) 10%
  MIC: > 1020 mg/L
[7]; [20]
  MIC: 256 mg/L (≈ 588 µM)
[7]; [21]
  MIC: 256 mg/L (≈ 588 µM)
[7]; G-block (OligoCF-5/20) 6%
  MIC: 128 mg/L (≈ 294 µM)
[7]; G-block (OligoCF-5/20) 10%, read-out: MIC
  MIC: 64 mg/L (≈ 147 µM)
[8]; [16]
  MIC: > 16 mg/L
[8]; [17]
  MIC: > 16 mg/L
[8]; [18]
  MIC: > 16 mg/L
[8]; [19]
  MIC: > 16 mg/L
[9]; [20]
  MIC: 1020 mg/L (≈ 2350 µM)
[9]; [21]
  MIC: 1020 mg/L (≈ 2350 µM)
[9]; G-block (OligoCF-5/20) 6%
  MIC: 512 mg/L (≈ 1180 µM)
[9]; G-block (OligoCF-5/20) 10%
  MIC: 512 mg/L (≈ 1180 µM)
[10]; [14]
  MIC: 0.0625 mg/L (≈ 0.144 µM)
[10]; [15]
  MIC: 0.0312 mg/L (≈ 0.0718 µM)
[11]; Table 1, V4 ACB (Libya), OligoCF-5/20 0G
  MIC: 1020 mg/L (≈ 2350 µM)
[11]; Table 1, V4 ACB (Libya), OligoCF-5/20 +2% G
  MIC: 512 mg/L (≈ 1180 µM)
[11]; Table 1, V4 ACB (Libya), OligoCF-5/20 +6% G
  MIC: 256 mg/L (≈ 588 µM)
[11]; Table 1, V4 ACB (Libya), OligoCF-5/20 +10% G
  MIC: 128 mg/L (≈ 294 µM)
[11]; Table 7, V4 MDR Acin baum (Libya), M-block oligomer 0M
  MIC: 2050 mg/L (≈ 4700 µM)
[11]; Table 7, V4 MDR Acin baum (Libya), M-block oligomer +2% M
  MIC: 512 mg/L (≈ 1180 µM)
[11]; Table 7, V4 MDR Acin baum (Libya), M-block oligomer +6% M
  MIC: 256 mg/L (≈ 588 µM)
[11]; Table 7, V4 MDR Acin baum (Libya), M-block oligomer +10% M
  MIC: 64 mg/L (≈ 147 µM)
[11]; Example 1, Acinetobacter baumannii isolate
  effect in combination with alginate oligomers: more positive effect
[12]; OligoCF-5/20 0G
  MIC: 2 mg/L (≈ 4.59 µM)
[12]; OligoCF-5/20 +2% G
  MIC: 2 mg/L (≈ 4.59 µM)
[12]; OligoCF-5/20 +6% G
  MIC: < 1 mg/L
[12]; OligoCF-5/20 +10% G
  MIC: < 1 mg/L
[13]; Klebsiella pneumoniae, OligoCF-5/20 0G, read-out: MIC
  MIC: 256 mg/L (≈ 588 µM)
[13]; OligoCF-5/20 +2% G
  MIC: 512^‡ μg/ml
[13]; OligoCF-5/20 +6% G
  MIC: 128^† μg/ml
[13]; OligoCF-5/20 +10% G
  MIC: 64^† μg/ml
